Data from patent publication US20040142971A1, “BENZOTHIOPHENE COMPOUNDS HAVING ANTIINFECTIVE ACTIVITY” (GeneSoft, Inc., priority 2001, published 2004).

Assays:
Assay in all cases: MIC, NCCLS broth microdilution
B. Cereus ATCC 11778 = format: cell-based, Bacillus cereus; conditions: A = B. Cereus ATCC 11778
Text: (§1) In vitro biological activity data were collected for a variety of microorganisms, including Bacillus cereus (ATCC 11778), Staphylococcus aureus (ATCC 27660 (a methicillin resistant strain (MRSA), ATCC 33591 and ATCC 43300); ATCC 13709, a methicillin sensitive strain (MSSA)); Streptococcus pneumoniae (ATCC 51422, a penicillin resistant strain (PRSP)), Enterococcus faecium (ATCC 51559, a vancomycin resistant strain (VRE)), and Staphylococcus epidermidis (ATCC 700586, a methycillin resistant strain (MRSE)). Additionally, antifungal activity data were collected for Candida albicans (ATCC 38247). Minimal inhibition concentrations (MIC's) were determined using the National Committee for Clinical Laboratory Standards (NCCLS) broth microdilution assay in microtiter plates, as set forth in: (1) the guidelines of the National Committee for Clinical Laboratory Standards (NCCLS) Document M7-A4 (NCCLS, 1997); (2) the guidelines of the National Committee for Clinical Laboratory Standards (NCCLS) Document M11-A4 (NCCLS, 1997); and (3) the guidelines and reference method of the National Committee for Clinical Laboratory Standards (NCCLS) Document M27-T (NCCLS, 1995). For antifungal essays, the method recommended in Murray, PR., 1995 Manual of Clinical Microbiology (ASM Press, Washington, D.C.), was employed.

[1] = tested on: E. faecium ATCC 51559 (vancomycin resistant strain, VRE); format: cell-based, Enterococcus faecium; conditions: B = E. faecium ATCC 51559
Text: as §1

[2] = tested on: S. aureus ATCC 13709 (methicillin sensitive strain, MSSA); format: cell-based, Staphylococcus aureus; conditions: C = S. aureus ATCC 13709
Text: as §1

[3] = tested on: S. aureus ATCC 27660 (methicillin resistant strain, MRSA); format: cell-based, Staphylococcus aureus; conditions: D = S. aureus ATCC 27660
Text: as §1

S. aureus ATCC 33591 = format: cell-based, Staphylococcus aureus; conditions: E = S. aureus ATCC 33591
Text: as §1

[4] = tested on: S. epidermidis ATCC 700586 (methycillin resistant strain, MRSE); format: cell-based, Staphylococcus epidermidis; conditions: G = S. epidermidis ATCC 700586
Text: as §1

[5] = tested on: S. pneumoniae ATCC 51422 (penicillin resistant strain, PRSP); format: cell-based, Streptococcus pneumoniae; conditions: H = S. pneumoniae ATCC 51422
Text: as §1

| Structure (SMILES) | Minimum Inhibitory Concentration (MIC) (B. Cereus ATCC 11778) | Minimum Inhibitory Concentration (MIC) [1] | Minimum Inhibitory Concentration (MIC) [2] | Minimum Inhibitory Concentration (MIC) [3] | Minimum Inhibitory Concentration (MIC) (S. aureus ATCC 33591) | Minimum Inhibitory Concentration (MIC) [4] | Minimum Inhibitory Concentration (MIC) [5] |
| --- | --- | --- | --- | --- | --- | --- | --- |
| Cn1cc(NC(=O)c2cc(NC(=O)c3cc(NC(=O)c4sc5cc6c(cc5c4Cl)OCO6)cn3C)cn2C)cc1C(=O)NCCN1CCOCC1 [Ib-20d] | +++ (+++ = MIC ≦ 4) | +++ (+++ = MIC ≦ 4) | +++ (+++ = MIC ≦ 4) | +++ (+++ = MIC ≦ 4) | +++ (+++ = MIC ≦ 4) | +++ (+++ = MIC ≦ 4) | +++ (+++ = MIC ≦ 4) |
| Cn1cc(NC(=O)c2cc(NC(=O)c3sc4cc5c(cc4c3Cl)OCO5)cn2C)cc1C(=O)NCCN1CCOCC1 [Ib-20e] | +++ (+++ = MIC ≦ 4) | +++ (+++ = MIC ≦ 4) | +++ (+++ = MIC ≦ 4) | +++ (+++ = MIC ≦ 4) | +++ (+++ = MIC ≦ 4) | +++ (+++ = MIC ≦ 4) | +++ (+++ = MIC ≦ 4) |
| Cn1cc(NC(=O)c2cc(NC(=O)c3cc(NC(=O)c4sc5cc6c(cc5c4Cl)OCO6)cn3C)cn2C)cc1C(=O)NCCN1CCCC1 [Ib-20g] | +++ (+++ = MIC ≦ 4) |  | +++ (+++ = MIC ≦ 4) | +++ (+++ = MIC ≦ 4) | +++ (+++ = MIC ≦ 4) | +++ (+++ = MIC ≦ 4) | +++ (+++ = MIC ≦ 4) |
| CN1CCCC1CCNC(=O)c1cc(NC(=O)c2cc(NC(=O)c3cc(NC(=O)c4sc5cc6c(cc5c4Cl)OCO6)cn3C)cn2C)cn1C (stereo not drawn) [Ib-20m] | +++ (+++ = MIC ≦ 4) | +++ (+++ = MIC ≦ 4) | +++ (+++ = MIC ≦ 4) | +++ (+++ = MIC ≦ 4) | +++ (+++ = MIC ≦ 4) | +++ (+++ = MIC ≦ 4) | +++ (+++ = MIC ≦ 4) |
| Cn1cc(NC(=O)c2sc3cc4c(cc3c2Cl)OCO4)cc1C(=O)NCCN1CCCC1 [Ib-20o] | +++ (+++ = MIC ≦ 4) | +++ (+++ = MIC ≦ 4) | +++ (+++ = MIC ≦ 4) | +++ (+++ = MIC ≦ 4) | +++ (+++ = MIC ≦ 4) | +++ (+++ = MIC ≦ 4) | +++ (+++ = MIC ≦ 4) |
| Cn1cc(NC(=O)c2sc3cc4c(cc3c2Cl)OCO4)cc1C(=O)NCCN1CCSCC1 [Ib-20p] | +++ (+++ = MIC ≦ 4) | +++ (+++ = MIC ≦ 4) | +++ (+++ = MIC ≦ 4) | +++ (+++ = MIC ≦ 4) | +++ (+++ = MIC ≦ 4) | +++ (+++ = MIC ≦ 4) | +++ (+++ = MIC ≦ 4) |
| CN1CCN(CCCNC(=O)c2cc(NC(=O)c3sc4cc5c(cc4c3Cl)OCO5)cn2C)CC1 [Ib-20r] | +++ (+++ = MIC ≦ 4) | +++ (+++ = MIC ≦ 4) | +++ (+++ = MIC ≦ 4) | +++ (+++ = MIC ≦ 4) | +++ (+++ = MIC ≦ 4) | +++ (+++ = MIC ≦ 4) | +++ (+++ = MIC ≦ 4) |
| Cn1cc(NC(=O)c2cc3ccccc3cn2)cc1C(=O)Nc1cc(C(=O)Nc2cc(C(=O)NCCN3CCOCC3)n(CCN3CCOCC3)c2)n(C)c1 [Ib-56] | >32 µg/mL | +++ (+++ = MIC ≦ 4) | +++ (+++ = MIC ≦ 4) | +++ (+++ = MIC ≦ 4) | +++ (+++ = MIC ≦ 4) | +++ (+++ = MIC ≦ 4) | +++ (+++ = MIC ≦ 4) |
| Cn1cc(NC(=O)c2cc(NC(=O)c3cc4ccccc4cn3)no2)cc1C(=O)OCCN1CCOCC1 [Ib-61] | +++ (+++ = MIC ≦ 4) | +++ (+++ = MIC ≦ 4) | +++ (+++ = MIC ≦ 4) | +++ (+++ = MIC ≦ 4) | +++ (+++ = MIC ≦ 4) | +++ (+++ = MIC ≦ 4) | +++ (+++ = MIC ≦ 4) |
| Cn1cc(NC(=O)c2cc(NC(=O)c3cc(NC(=O)c4cc5ccccc5cn4)c[nH]3)cn2C)cc1C(=O)NCCN1CCCCC1 [Ib-62] | + (+ = MIC from 12 to 32, inclusive) | +++ (+++ = MIC ≦ 4) | +++ (+++ = MIC ≦ 4) | +++ (+++ = MIC ≦ 4) | +++ (+++ = MIC ≦ 4) | +++ (+++ = MIC ≦ 4) | +++ (+++ = MIC ≦ 4) |
| Cc1cc(NC(=O)c2cc(NC(=O)c3cc(NC(=O)c4cc5ccccc5cn4)cn3C)cn2CCN2CCOCC2)sn1 [Ib-63] | +++ (+++ = MIC ≦ 4) | +++ (+++ = MIC ≦ 4) | +++ (+++ = MIC ≦ 4) | +++ (+++ = MIC ≦ 4) | +++ (+++ = MIC ≦ 4) | +++ (+++ = MIC ≦ 4) | +++ (+++ = MIC ≦ 4) |
| Cc1cc(NC(=O)c2cc(NC(=O)c3cc(NC(=O)c4cc5ccccc5cn4)cn3C)cn2CCN2CCCC2)sn1 [Ib-65] | +++ (+++ = MIC ≦ 4) | +++ (+++ = MIC ≦ 4) | +++ (+++ = MIC ≦ 4) | +++ (+++ = MIC ≦ 4) | +++ (+++ = MIC ≦ 4) | +++ (+++ = MIC ≦ 4) | +++ (+++ = MIC ≦ 4) |
| Cn1cc(NC(=O)c2cc(NC(=O)c3cc(NC(=O)c4cc5ccccc5cn4)c[nH]3)cn2C)cc1C(=O)NCCc1ccncc1 [Ib-76] | +++ (+++ = MIC ≦ 4) | +++ (+++ = MIC ≦ 4) | +++ (+++ = MIC ≦ 4) | +++ (+++ = MIC ≦ 4) | +++ (+++ = MIC ≦ 4) | +++ (+++ = MIC ≦ 4) |  |
| Cn1cc(NC(=O)c2cc(NC(=O)c3cc(NC(=O)c4cc5ccccc5cn4)c[nH]3)cn2C)cc1C(=O)NCCN1CCC(F)(F)CC1 [Ib-78] | +++ (+++ = MIC ≦ 4) |  | +++ (+++ = MIC ≦ 4) | +++ (+++ = MIC ≦ 4) | +++ (+++ = MIC ≦ 4) |  |  |
